Laboratory results taken from US20070104780A1, “Formulation comprising a drug of low water solubility and method of use thereof” (priority 2005, published 2007).
Converted amounts (≈) assume the structure as drawn. Each block holds one compound with its values, some of them ahead of it.

Tests used:
Assay type in all cases: physicochemical
[1] = Aqueous solubility of the drugs
Description: It will be recognized that aqueous solubility of many drugs is pH dependent; in the case of such drugs the solubility of interest herein is at a physiologically relevant pH, for example a pH of about 1 to about 8.

[2] = Solubility of ABT-102 in various carriers (Example 14); conditions: thermodynamic from solid, room temperature, read-out: Solubility (S)
Method: An accurately weighed quantity of about 1 g of each excipient was weighed into three glass vials. Semisolid excipients were warmed in a water bath at around 50-60° C. until completely melted before weighing. An accurately weighed quantity of ABT-102 of about 25 mg, 50 mg and 100 mg was weighed into each of the three vials containing the same excipients. The vials were closed tightly and mixed for around 30 seconds by vortexing and then sonicating in a warm water bath. The vials were visually observed for dissolution after 5-6 hours. Solubility is reported in Table 11 below based on volume of carrier providing a clear solution and volume of carrier where solid was present. All solubility values were determined at room temperature.

[3] = Screening of carriers for solubility of ABT-869 (Example 1); conditions: thermodynamic from solid, room temperature, read-out: Solubility (S)
Method: Approximately 20 mg of ABT-869 was weighed and added to a 0.3 ml vial. A test carrier (100 μl) was then added by pipette to the vial. The vial was three times alternately vortexed for about 30 seconds and sonicated for about 1 minute to ensure adequate wetting and dispersion of the ABT-869. The vial was wrapped in aluminum foil, placed in a Labquake™ rotator and rotated for a minimum of 24 hours. […] If solid was still present, carrier was added until all solid had dissolved and the resulting solution was clear. Approximate solubility is reported in Table 1 below as a range based on volume of carrier providing a clear solution and volume of carrier where solid was present. All solubility values were determined at room temperature.

[4] = Solubility of ABT-869 in carriers comprising Phosal 53 MCT (Example 2, HPLC); conditions: 25° C.
Method: Solubility of ABT-869 was measured in various carriers comprising Phosal 53 MCT™. Approximately 100-400 mg of ABT-869 was weighed and added to a 4 ml glass vial, to which 2 ml of a test carrier was added. The vial was then vortexed and sonicated for 10 minutes. The vials were wrapped with aluminum foil, placed in a water bath at 25° C. and agitated for 2 days. The contents of the vials were then filtered and the filtrate diluted 25× with mobile phase for HPLC analysis.

[5] = Solubility of isotretinoin in Phosal 53 MCT and typical solvents (Example 11)
[6] = Solubility of paricalcitol in various carriers (Example 13)

- solubility ([1]; water, pH 1.1, simulated gastric fluid, read-out: solubility in water): ~0.102 µg/mL (≈ 0.000293 mM)
- solubility ([1]; water, pH 6.8, aqueous buffer, read-out: solubility in water): ~0.0573 µg/mL (≈ 0.000164 mM)
- solubility ([2]; oil or lipid, carrier Gelucire 44/14): 25 to 50 mg/mL (≈ 71.7 to 143 mM)
- solubility ([2]; oil or lipid, carrier Phosal 50 PG): 50 to 100 mg/mL (≈ 143 to 287 mM)
- solubility ([2]; oil or lipid, carrier Phosal 53 MCT): 50 to 100 mg/mL (≈ 143 to 287 mM)
- solubility ([2]; oil or lipid, carrier Vit.E TPGS): < 200 mg/mL
- solubility ([2]; organic solvent or mixture, carrier PEG 400): 71 mg/mL (≈ 204 mM)
- solubility ([2]; organic solvent or mixture, carrier VP Dimer (VPD)): 160 mg/mL (≈ 459 mM)
SMILES: CC(C)(C)c1ccc2c(c1)CC[C@H]2NC(=O)Nc1cccc2[nH]ncc12 [ABT-102]

- solubility ([1]; pH 1, simulated gastric fluid): ~1.7 µg/mL (≈ 0.00453 mM)
- solubility ([1]; pH 5, aqueous buffer): ~0.027 µg/mL (≈ 7.19e-05 mM)
- solubility ([3]; oil or lipid, carrier 10% ethanol, 90% Phosal 50 PG): 50 to 67 mg/mL (≈ 133 to 178 mM)
- solubility ([3]; oil or lipid, carrier 10% ethanol, 90% Phosal 53 MCT): 67 to 100 mg/mL (≈ 178 to 266 mM)
- solubility ([3]; oil or lipid, carrier 100% Captex 355 EP): < 50 mg/mL
- solubility ([3]; organic solvent or mixture, carrier 10% ethanol, 20% polysorbate 80, 70% PEG 400): > 200 mg/mL
- solubility ([3]; organic solvent or mixture, carrier 10% ethanol, 30% Phosal 50 PG, 60% PEG 400): > 200 mg/mL
- solubility ([3]; organic solvent or mixture, carrier 10% ethanol, 90% PEG 400): > 200 mg/mL
- solubility ([3]; organic solvent or mixture, carrier 100% PEG 400): > 200 mg/mL
- solubility ([4]; carrier 5% ethanol, 95% Phosal 53 MCT): 115 mg/g
- solubility ([4]; carrier 10% PEG 400, 0.5% Tween 80, 4.5% ethanol, 85% Phosal 53 MCT): >122 mg/g
- solubility ([4]; carrier 10% PEG 400, 5% ethanol, 85% Phosal 53 MCT): >123 mg/g
- solubility ([4]; carrier 10% PEG 400, 90% Phosal 53 MCT): 139 mg/g
- solubility ([4]; carrier 10% ethanol, 90% Phosal 53 MCT): 97 mg/g
- solubility ([4]; carrier 20% PEG 400, 80% Phosal 53 MCT): 166 mg/g
- solubility ([4]; carrier 30% PEG 400, 70% Phosal 53 MCT): 185 mg/g
- solubility ([4]; carrier 40% PEG 400, 60% Phosal 53 MCT): 199 mg/g
- solubility ([4]; carrier 50% PEG 400, 50% Phosal 53 MCT): 221 mg/g
- solubility ([4]; carrier 100% Phosal 53 MCT): 95 mg/g
SMILES: Cc1ccc(F)c(NC(=O)Nc2ccc(-c3cccc4[nH]nc(N)c34)cc2)c1 [ABT-869, N-[4-(3-amino-1H-indazol-4-yl)phenyl]-N′-(2-fluoro-5-methylphenyl)urea]

- solubility [1]: ~5 µg/mL (≈ 0.0166 mM)
- solubility limit ([5]; in Phosal 53 MCT at 25° C.): 72 to 78 mg/g
- solubility ([5]; in caprylic/capric triglycerides): 5.1 mg/g
- solubility ([5]; in ethanol): 16.7 mg/g
- solubility ([5]; in oleic acid): 19.1 mg/g
- solubility ([5]; in soybean oil): 2.4 mg/g
SMILES: CC1=C(/C=C/C(C)=C/C=C/C(C)=C\C(=O)O)C(C)(C)CCC1 [Isotretinoin]

- solubility ([1]; pH 7.4, aqueous buffer): 0.0115 µg/mL (≈ 2.76e-05 mM)
- Solubility (mean of 2 tests) ([6]; carrier 10% hydroxypropyl-β-cyclodextrin in PEG): 734 µg/g
- Solubility (mean of 2 tests) ([6]; carrier Neobee M5 + 0.5% ethanol): 194 µg/g
- Solubility (mean of 2 tests) ([6]; carrier PEG 400): 1,085 μg/g
- Solubility (mean of 2 tests) ([6]; carrier Phosal 50 SA): 752 µg/g
- Solubility (mean of 2 tests) ([6]; carrier Phosal 53 MCT): 1,459 μg/g
- Solubility (mean of 2 tests) ([6]; carrier castor oil): 344 µg/g
- Solubility (mean of 2 tests) ([6]; carrier glyceryl monooleate): 1,067 μg/g
- Solubility (mean of 2 tests) ([6]; carrier medium chain monoglycerides (Capmul MCM)): 5,057 μg/g
- Solubility (mean of 2 tests) ([6]; carrier medium chain triglycerides (Neobee M5)): 165 µg/g
- Solubility (mean of 2 tests) ([6]; carrier oleic acid): 819 µg/g
- Solubility (mean of 2 tests) ([6]; carrier polysorbate 80 (Tween 80)): 1,353 μg/g
- Solubility (mean of 2 tests) ([6]; carrier propylene glycol): 5,791 μg/g
- Solubility (mean of 2 tests) ([6]; carrier triethyl citrate): 453 µg/g
SMILES: C[C@H](/C=C/[C@H](C)C(C)(C)O)[C@H]1CC[C@H]2/C(=C/C=C3C[C@@H](O)C[C@H](O)C3)CCC[C@]12C [paricalcitol]
